Laboratory results taken from ChEMBL document CHEMBL4823332, “Discovery and Development of Cyclic Peptide Inhibitors of CIB1” (ACS Med Chem Lett, 2021).
Positions of bridges follow the written chain, without caps; N, C: chain ends. Non-standard residues stand in square brackets, D forms with d. Residues, ends and D or L forms follow the SMILES beside them. ξ: configuration not given here. NMeW = CN[C@@H](Cc1c[nH]c2ccccc12)C(=O)O; Ala(2-furyl) = N[C@@H](Cc1ccco1)C(=O)O; NMeY = CN[C@@H](Cc1ccc(O)cc1)C(=O)O; hLeu = CC(C)CC[C@H](N)C(=O)O; ξhLeu = CC(C)CCC(N)C(=O)O; NMeA = CN[C@@H](C)C(=O)O; Nle = CCCC[C@H](N)C(=O)O

What follows are compounds tested against T1, Calcium and integrin-binding protein 1 (Homo sapiens, UniProt Q99828) (assay: Displacement of Alexa Fluor 647 labelled UNC10245092 peptide from CIB1 (unknown origin) preincubated for 20 mins followed by Alexa-CIB1 phage peptide addition and measured after 20 to 30 mins by TR-FRET assay).
T1 sequence (Q99828 whole entry): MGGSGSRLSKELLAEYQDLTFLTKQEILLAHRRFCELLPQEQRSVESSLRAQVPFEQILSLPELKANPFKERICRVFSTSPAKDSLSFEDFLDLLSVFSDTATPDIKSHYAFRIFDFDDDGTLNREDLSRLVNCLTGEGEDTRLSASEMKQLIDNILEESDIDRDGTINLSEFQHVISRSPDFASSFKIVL
`CC[C@H](C)[C@@H]1NC(=O)[C@H](CC(C)C)NC(=O)[C@H](Cc2c[nH]c3ccccc23)NC(=O)[C@H](Cc2ccc(O)cc2)NC(=O)[C@@H]2CCCN2C(=O)[C@H](CCC(N)=O)NC(=O)[C@H](CCCCN)NC(=O)[C@H](Cc2ccc(O)cc2)NC(=O)CSC[C@@H](C(N)=O)NC(=O)[C@H](Cc2c[nH]c3ccccc23)NC(=O)[C@H](C)NC1=O` ({CH2CO}-YKQPYWLIAWC-NH2; thioether N-11) was tested, and the IC50 was 0.076 µM.
Compound `CC[C@H](C)[C@@H]1NC(=O)[C@H](CC(N)=O)NC(=O)[C@H](Cc2c[nH]c3ccccc23)NC(=O)[C@H]([C@@H](C)CC)NC(=O)[C@@H]2CCCN2C(=O)[C@H]([C@@H](C)O)NC(=O)[C@H]([C@@H](C)O)NC(=O)[C@H](Cc2ccc(O)cc2)NC(=O)CSC[C@@H](C(N)=O)NC(=O)[C@H](Cc2ccccc2)NC(=O)[C@H](CCCNC(=N)N)NC1=O` ({CH2CO}-YTTPIWNIRFC-NH2; thioether N-11) has an IC50 of 0.015 µM.
In the case of `CC[C@H](C)[C@@H]1NC(=O)[C@H](CC(C)C)NC(=O)[C@H](Cc2c[nH]c3ccccc23)NC(=O)[C@H](Cc2ccc(O)cc2)N(C)C(=O)[C@@H]2CCCN2C(=O)[C@H](CCC(C)C)NC(=O)[C@H](C)NC(=O)[C@H](Cc2ccc(O)cc2)N(C)C(=O)CSC[C@@H](C(N)=O)NC(=O)[C@H](Cc2c[nH]c3ccccc23)NC(=O)[C@H](CC(N)=O)NC1=O` ({CH2CO}-[NMeY]A[hLeu]P[NMeY]WLINWC-NH2; thioether N-11), the IC50 is reported as 1.8 µM.
In the case of `CC[C@H](C)[C@@H]1NC(=O)[C@H](CC(C)C)NC(=O)[C@H](C)NC(=O)[C@H](Cc2ccc(O)cc2)NC(=O)[C@@H]2CCCN2C(=O)[C@H](CCC(N)=O)NC(=O)[C@H](CCCCN)NC(=O)[C@H](Cc2ccc(O)cc2)NC(=O)CSC[C@@H](C(N)=O)NC(=O)[C@H](Cc2c[nH]c3ccccc23)NC(=O)[C@H](CC(N)=O)NC1=O` ({CH2CO}-YKQPYALINWC-NH2; thioether N-11), the IC50 is reported as 0.43 µM.
For `CC(C)C[C@@H]1NC(=O)[C@H](Cc2c[nH]c3ccccc23)NC(=O)[C@H](Cc2ccc(O)cc2)NC(=O)[C@@H]2CCCN2C(=O)[C@H](CCC(N)=O)NC(=O)[C@H](CCCCN)NC(=O)[C@H](Cc2ccc(O)cc2)NC(=O)CSC[C@@H](C(N)=O)NC(=O)[C@H](Cc2c[nH]c3ccccc23)NC(=O)[C@H](CC(N)=O)NC(=O)[C@H](C)NC1=O` ({CH2CO}-YKQPYWLANWC-NH2; thioether N-11), the IC50 was 0.17 µM.
Compound Ac-YKQPYWLINWA-NH2 has an IC50 greater than 10 µM.
`CC[C@H](C)[C@@H]1NC(=O)[C@H](CC(C)C)NC(=O)[C@H](Cc2c[nH]c3ccccc23)NC(=O)[C@H](Cc2ccc(O)cc2)NC(=O)[C@@H]2CCCN2C(=O)[C@H](CCC(N)=O)NC(=O)[C@H](CCCCN)NC(=O)[C@H](C)NC(=O)CSC[C@@H](C(N)=O)NC(=O)[C@H](Cc2c[nH]c3ccccc23)NC(=O)[C@H](CC(N)=O)NC1=O` ({CH2CO}-AKQPYWLINWC-NH2; thioether N-11) showed an IC50 of 2.5 µM.
Compound `CC[C@H](C)[C@@H]1NC(=O)[C@H](CC(C)C)NC(=O)[C@H](Cc2c[nH]c3ccccc23)NC(=O)[C@H](C)NC(=O)[C@@H]2CCCN2C(=O)[C@H](CCC(N)=O)NC(=O)[C@H](CCCCN)NC(=O)[C@H](Cc2ccc(O)cc2)NC(=O)CSC[C@@H](C(N)=O)NC(=O)[C@H](Cc2c[nH]c3ccccc23)NC(=O)[C@H](CC(N)=O)NC1=O` ({CH2CO}-YKQPAWLINWC-NH2; thioether N-11) has an IC50 of 0.47 µM.
In the case of `CC[C@H](C)[C@@H]1NC(=O)[C@H](CC(C)C)NC(=O)[C@H](Cc2c[nH]c3ccccc23)NC(=O)[C@H](Cc2ccc(O)cc2)NC(=O)[C@@H]2CCCN2C(=O)[C@H](C)NC(=O)[C@H](CCCCN)NC(=O)[C@H](Cc2ccc(O)cc2)NC(=O)CSC[C@@H](C(N)=O)NC(=O)[C@H](Cc2c[nH]c3ccccc23)NC(=O)[C@H](CC(N)=O)NC1=O` ({CH2CO}-YKAPYWLINWC-NH2; thioether N-11), the IC50 is reported as 0.04 µM.
`CC[C@H](C)[C@@H]1NC(=O)[C@H]([C@@H](C)O)NC(=O)[C@H](Cc2c[nH]c3ccccc23)NC(=O)[C@@H]2CCCN2C(=O)CNC(=O)[C@H]([C@@H](C)O)NC(=O)[C@H](Cc2ccc(O)cc2)NC(=O)CSC[C@H](C(N)=O)NC(=O)[C@H](Cc2c[nH]c3ccccc23)NC(=O)[C@H](CCCNC(=N)N)NC1=O` was tested, and the IC50 was 0.012 µM.
Compound `CC[C@H](C)[C@@H]1NC(=O)[C@H](CC(C)C)NC(=O)[C@H](Cc2c[nH]c3ccccc23)NC(=O)[C@H](Cc2ccc(O)cc2)NC(=O)[C@@H]2CCCN2C(=O)[C@H](C)NC(=O)[C@H](C)NC(=O)[C@H](Cc2ccc(O)cc2)NC(=O)CSC[C@@H](C(N)=O)NC(=O)[C@H](Cc2c[nH]c3ccccc23)NC(=O)[C@H](C)NC1=O` ({CH2CO}-YAAPYWLIAWC-NH2; thioether N-11) has an IC50 of 0.82 µM.
In the case of `CC[C@H](C)[C@@H]1NC(=O)[C@H](CCCNC(=N)N)NC(=O)[C@H](Cc2c[nH]c3ccccc23)NC(=O)[C@H]([C@@H](C)O)NC(=O)[C@H](CO)NC(=O)[C@H](CCC(N)=O)NC(=O)[C@H](CCC(N)=O)NC(=O)[C@H](Cc2ccc(O)cc2)NC(=O)CSC[C@@H](C(N)=O)NC(=O)[C@H](Cc2c[nH]c3ccccc23)NC(=O)[C@H](CC(N)=O)NC1=O` ({CH2CO}-YQQSTWRINWC-NH2; thioether N-11), the IC50 is reported as 0.065 µM.
`CC[C@H](C)[C@@H]1NC(=O)[C@H](CC(C)C)NC(=O)[C@H](Cc2c[nH]c3ccccc23)N(C)C(=O)[C@H](Cc2ccc(O)cc2)NC(=O)[C@@H]2CCCN2C(=O)[C@H](CCC(N)=O)NC(=O)[C@H](C)N(C)C(=O)[C@H](Cc2ccc(O)cc2)NC(=O)CSC[C@@H](C(N)=O)NC(=O)[C@H](Cc2c[nH]c3ccccc23)NC(=O)[C@H](Cc2ccco2)NC1=O` ({CH2CO}-Y[NMeA]QPY[NMeW]LI[Ala(2-furyl)]WC-NH2; thioether N-11) gave an IC50 of 0.19 µM.
Work on `CC[C@H](C)[C@@H]1NC(=O)[C@H](CC(C)C)NC(=O)[C@H](Cc2c[nH]c3ccccc23)N(C)C(=O)[C@H](Cc2ccc(O)cc2)NC(=O)[C@@H]2CCCN2C(=O)C(CCC(C)C)NC(=O)[C@H](C)N(C)C(=O)[C@H](Cc2ccc(O)cc2)NC(=O)CSC[C@@H](C(N)=O)NC(=O)[C@H](Cc2c[nH]c3ccccc23)NC(=O)[C@H](CC(N)=O)NC1=O` (some centres not stated) ({CH2CO}-Y[NMeA][ξhLeu]PY[NMeW]LINWC-NH2; thioether N-11) yielded an IC50 of 0.19 µM.
`CC[C@H](C)[C@@H]1NC(=O)[C@H](CC(C)C)NC(=O)[C@H](Cc2c[nH]c3ccccc23)NC(=O)[C@H](Cc2ccc(O)cc2)N(C)C(=O)[C@@H]2CCCN2C(=O)[C@H](CCC(N)=O)NC(=O)[C@H](C)NC(=O)[C@H](Cc2ccc(O)cc2)NC(=O)CSC[C@@H](C(N)=O)NC(=O)[C@H](Cc2c[nH]c3ccccc23)NC(=O)[C@H](CC(C)C)NC1=O` ({CH2CO}-YAQP[NMeY]WLILWC-NH2; thioether N-11) showed an IC50 of 0.067 µM.
`CC[C@H](C)[C@@H]1NC(=O)[C@H](CC(C)C)NC(=O)[C@H](Cc2c[nH]c3ccccc23)NC(=O)[C@H](Cc2ccccc2)NC(=O)[C@@H]2CCCN2C(=O)[C@H](C)NC(=O)[C@H](C)NC(=O)[C@H](Cc2ccc(O)cc2)NC(=O)CSC[C@@H](C(N)=O)NC(=O)[C@H](Cc2c[nH]c3ccccc23)NC(=O)[C@H](CC(C)C)NC1=O` ({CH2CO}-YAAPFWLILWC-NH2; thioether N-11) showed an IC50 of 0.3 µM.
For `CC[C@H](C)[C@@H]1NC(=O)[C@H](CC(C)C)NC(=O)[C@H](Cc2c[nH]c3ccccc23)N(C)C(=O)[C@H](Cc2ccc(O)cc2)NC(=O)[C@@H]2CCCN2C(=O)[C@H](CCC(N)=O)NC(=O)[C@H](C)N(C)C(=O)[C@H](Cc2ccc(O)cc2)NC(=O)CSC[C@@H](C(N)=O)NC(=O)[C@H](Cc2c[nH]c3ccccc23)NC(=O)[C@H](CC(N)=O)NC1=O` ({CH2CO}-Y[NMeA]QPY[NMeW]LINWC-NH2; thioether N-11), the IC50 was 0.054 µM.
Work on `CC[C@H](C)[C@@H]1NC(=O)[C@H](CC(C)C)NC(=O)[C@H](Cc2c[nH]c3ccccc23)NC(=O)[C@H](Cc2ccc(O)cc2)NC(=O)[C@@H]2CCCN2C(=O)[C@H](CCC(N)=O)NC(=O)[C@H](CCCCN)NC(=O)[C@H](Cc2ccc(O)cc2)NC(=O)CSC[C@@H](C(N)=O)NC(=O)[C@H](C)NC(=O)[C@H](CC(N)=O)NC1=O` ({CH2CO}-YKQPYWLINAC-NH2; thioether N-11) yielded an IC50 of 7.1 µM.
Compound `CC[C@H](C)[C@@H]1NC(=O)[C@H](CC(C)C)NC(=O)[C@H](Cc2c[nH]c3ccccc23)NC(=O)[C@H](Cc2ccc(O)cc2)NC(=O)[C@H](C)NC(=O)[C@H](CCC(N)=O)NC(=O)[C@H](CCCCN)NC(=O)[C@H](Cc2ccc(O)cc2)NC(=O)CSC[C@@H](C(N)=O)NC(=O)[C@H](Cc2c[nH]c3ccccc23)NC(=O)[C@H](CC(N)=O)NC1=O` ({CH2CO}-YKQAYWLINWC-NH2; thioether N-11) has an IC50 of 0.009 µM.
For `CC[C@H](C)[C@@H]1NC(=O)[C@H](CC(C)C)NC(=O)[C@H](Cc2c[nH]c3ccccc23)NC(=O)[C@H](Cc2ccc(O)cc2)NC(=O)[C@@H]2CCCN2C(=O)[C@H](CCC(C)C)NC(=O)[C@H](C)N(C)C(=O)[C@H](Cc2ccc(O)cc2)NC(=O)CSC[C@@H](C(N)=O)NC(=O)[C@H](Cc2c[nH]c3ccccc23)NC(=O)[C@H](Cc2ccco2)NC1=O` ({CH2CO}-Y[NMeA][hLeu]PYWLI[Ala(2-furyl)]WC-NH2; thioether N-11), the IC50 was 4.2 µM.
Work on `CC[C@H](C)[C@@H]1NC(=O)[C@H](C)NC(=O)[C@H](Cc2c[nH]c3ccccc23)NC(=O)[C@H](Cc2ccc(O)cc2)NC(=O)[C@@H]2CCCN2C(=O)[C@H](CCC(N)=O)NC(=O)[C@H](CCCCN)NC(=O)[C@H](Cc2ccc(O)cc2)NC(=O)CSC[C@@H](C(N)=O)NC(=O)[C@H](Cc2c[nH]c3ccccc23)NC(=O)[C@H](CC(N)=O)NC1=O` ({CH2CO}-YKQPYWAINWC-NH2; thioether N-11) yielded an IC50 of 0.015 µM.
In the case of `CCCC[C@@H]1NC(=O)[C@H](Cc2ccc(O)cc2)NC(=O)CSC[C@@H](C(N)=O)NC(=O)[C@H](Cc2c[nH]c3ccccc23)NC(=O)[C@H](Cc2ccco2)NC(=O)[C@H]([C@@H](C)CC)NC(=O)[C@H](CC(C)C)NC(=O)[C@H](Cc2c[nH]c3ccccc23)NC(=O)[C@H](Cc2ccc(O)cc2)NC(=O)[C@@H]2CCCN2C(=O)[C@H](CCC(C)C)NC1=O` ({CH2CO}-Y[Nle][hLeu]PYWLI[Ala(2-furyl)]WC-NH2; thioether N-11), the IC50 is reported as 1.5 µM.
